Assay results reported in US5368707A, “Convenient determination of trace lead in whole blood and other fluids” (priority 1993, dated 1994).

Legend:
Format in all cases: biochemical, pig
isocitrate dehydrogenase [1] = target: T1, isocitrate dehydrogenase (Sus scrofa, UniProt P33198); assay: Sensitivity of isocitrate dehydrogenase to lead ion (detection level)
T1 construct: purchased Sigma, St. Louis, Mo; ICD Type VI
T1 sequence (P33198 9-421): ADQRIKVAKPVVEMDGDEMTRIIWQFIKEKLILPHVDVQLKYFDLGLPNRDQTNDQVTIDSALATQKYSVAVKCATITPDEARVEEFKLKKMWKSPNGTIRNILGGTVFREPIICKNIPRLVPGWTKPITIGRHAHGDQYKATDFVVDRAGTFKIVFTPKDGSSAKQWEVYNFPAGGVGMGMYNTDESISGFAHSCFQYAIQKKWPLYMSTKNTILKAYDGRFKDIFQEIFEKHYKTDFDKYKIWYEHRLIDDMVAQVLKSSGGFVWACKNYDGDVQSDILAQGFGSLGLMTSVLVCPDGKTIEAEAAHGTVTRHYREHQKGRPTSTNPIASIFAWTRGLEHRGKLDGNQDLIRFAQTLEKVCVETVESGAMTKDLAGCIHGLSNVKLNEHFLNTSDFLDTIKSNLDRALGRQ
Method: Pig heart NADP-linked isocitric dehydrogenase (ICD, EC 1.1.1.42), an oxidoreductase, is sensitive to trace levels of lead ion as low as 1 μg/dl. […] In fact, at low concentrations of activator, e.g., <200 ppb Mn^++, the activity of ICD is proportional to Mn^++ and may be used to determine activator concentration (Guilbault, 1970). Inactivation by inhibitors is useful for determining inhibitor concentration. Specificity of enzymes for activators, or inhibitors, is not as great as for the natural substrate of the enzyme, but in some cases inhibitor concentration may be selectively determined. Silver and mercury have been determined in the presence of each other using isocitrate dehydrogenase (Mealor and Townshend, 1968). However, until now, there has been no satisfactory rapid amperometric method to determine lead ion based on ICD inhibition, much less a simple method to determine low lead ion concentrations in whole blood.
The inventors have developed a highly sensitive method for the determination of lead ion in solution. Isocitrate dehydrogenase, under specific conditions, may be employed in an assay to quantitatively determine lead ion in the range 0-30 μg per deciliter of solution. Assay sensitivity can be adjusted to a desired concentration range for lead by altering one or more of several parameters such as the concentration of isocitric dehydrogenase. Lower enzyme concentrations increase sensitivity to lead ion.
(§1) The inventors have shown that less than 1 μg/dL of lead in solution may be measured employing the enzyme isocitrate dehydrogenase. The measurements are sensitive to several factors, including pH, enzyme concentration, co-factor concentration and temperature. The following example illustrates the effect of pH on enzyme inhibition.

isocitrate dehydrogenase [2] = target: T1, isocitrate dehydrogenase; assay: ICDH inhibition by lead in the presence of CoSO4 (Example 8); conditions: 1 mM CoSO4
Method: A major problem in the measurement of lead in blood is the interference by various blood proteins and, as in the majority of clinical samples, the presence of excess amounts of EDTA. The inventors have discovered that lead chelated with EDTA is exchangeable with cobalt(II). As shown in this example, lead Pb(II) is displaced from EDTA by cobalt(II) and detected by its inhibition of isocitrate dehydrogenase (ICDH).
Micromolar concentrations of lead were determined through ICDH inhibition in the presence of 1 mM CoSO4.

isocitrate dehydrogenase [3] = target: T1, isocitrate dehydrogenase; assay: Effect of pH on inhibition of isocitrate dehydrogenase by lead ion (Example 7); conditions: for Current / Inhibition: 1.0 U/mL enzyme, 50 mM Tris
Method: as §1
Inhibition of the enzyme isocitrate dehydrogenase was calculated based on the amperometric signal (I) which is the mediator oxidation current measured with a glassy carbon electrode at an applied potential of +100 mV. Inhibition was determined as (Iuninhibited -Iinhibited)/Iuninhibited. 50 mM Tris buffer at various pH values as shown in Table 2 was used with 1.0 U/mL enzyme in the solution.

[Pb+2] [lead ion]
reversibility of binding to ICDH (isocitrate dehydrogenase [1]): binds irreversibly to the enzyme
detectable lead ion level (isocitrate dehydrogenase [1]; ICDH inhibition): ~1 µg/dL
quantitatively determinable lead range (isocitrate dehydrogenase [1]; isocitrate dehydrogenase assay, in solution): 0-30 μg per deciliter
Inhibition (isocitrate dehydrogenase [2]; 2.4 μM lead): 24%
Inhibition (isocitrate dehydrogenase [2]; 4.8 μM lead): 46%
Inhibition (isocitrate dehydrogenase [2]; 12 μM lead): 71%
Current (isocitrate dehydrogenase [3]; pH 7.5, 5.5 μg/dL Pb): 749 nA
Inhibition (isocitrate dehydrogenase [3]; pH 7.5, 5.5 μg/dL Pb): 0%
Current (isocitrate dehydrogenase [3]; pH 7.5, 11.1 μg/dL Pb): 754 nA
Inhibition (isocitrate dehydrogenase [3]; pH 7.5, 11.1 μg/dL Pb): 0%
Current (isocitrate dehydrogenase [3]; pH 7.5, 16.6 μg/dL Pb): 760 nA
Inhibition (isocitrate dehydrogenase [3]; pH 7.5, 16.6 μg/dL Pb): -1%
Current (isocitrate dehydrogenase [3]; pH 7.5, 22.1 μg/dL Pb): 750 nA
Inhibition (isocitrate dehydrogenase [3]; pH 7.5, 22.1 μg/dL Pb): 0%
Current (isocitrate dehydrogenase [3]; pH 7.5, 27.6 μg/dL Pb): 761 nA
Inhibition (isocitrate dehydrogenase [3]; pH 7.5, 27.6 μg/dL Pb): -1%
Inhibition (in words) (isocitrate dehydrogenase [3]; pH 7.5, 27.6 μg/dL lead): no significant inhibition
Inhibition (in words) (isocitrate dehydrogenase [3]; pH 7.5, up to about 28 mg per deciliter lead (so in the source)): very little if any inhibition
Current (isocitrate dehydrogenase [3]; pH 8.0, 5.5 μg/dL Pb): 673 nA
Inhibition (isocitrate dehydrogenase [3]; pH 8.0, 5.5 μg/dL Pb): 6%
Current (isocitrate dehydrogenase [3]; pH 8.0, 11.1 μg/dL Pb): 613 nA
Inhibition (isocitrate dehydrogenase [3]; pH 8.0, 11.1 μg/dL Pb): 14%
Current (isocitrate dehydrogenase [3]; pH 8.0, 16.6 μg/dL Pb): 532 nA
Inhibition (isocitrate dehydrogenase [3]; pH 8.0, 16.6 μg/dL Pb): 25%
Current (isocitrate dehydrogenase [3]; pH 8.0, 22.1 μg/dL Pb): 439 nA
Inhibition (isocitrate dehydrogenase [3]; pH 8.0, 22.1 μg/dL Pb): 38%
Current (isocitrate dehydrogenase [3]; pH 8.0, 27.6 μg/dL Pb): 303 nA
Inhibition (isocitrate dehydrogenase [3]; pH 8.0, 27.6 μg/dL Pb): 58%
enzyme inhibition (isocitrate dehydrogenase [3]; pH 8, up to about 28 mg per deciliter lead (so in the source)): about 60%
Current (isocitrate dehydrogenase [3]; pH 8.5, 5.5 μg/dL Pb): 636 nA
Inhibition (isocitrate dehydrogenase [3]; pH 8.5, 5.5 μg/dL Pb): 18%
Current (isocitrate dehydrogenase [3]; pH 8.5, 11.1 μg/dL Pb): 522 nA
Inhibition (isocitrate dehydrogenase [3]; pH 8.5, 11.1 μg/dL Pb): 33%
Current (isocitrate dehydrogenase [3]; pH 8.5, 16.6 μg/dL Pb): 406 nA
Inhibition (isocitrate dehydrogenase [3]; pH 8.5, 16.6 μg/dL Pb): less than 50%
Inhibition (isocitrate dehydrogenase [3]; pH 8.5, 16.6 μg/dL Pb, listed as Lead ion): 48%
Current (isocitrate dehydrogenase [3]; pH 8.5, 22.1 μg/dL Pb): 241 nA
Inhibition (isocitrate dehydrogenase [3]; pH 8.5, 22.1 μg/dL Pb): 69%
Current (isocitrate dehydrogenase [3]; pH 8.5, 27.6 μg/dL Pb): 99 nA
Inhibition (isocitrate dehydrogenase [3]; pH 8.5, 27.6 μg/dL Pb, listed as Lead ion): 87%
Inhibition (isocitrate dehydrogenase [3]; pH 8.5, 27.6 μg/dL Pb, listed as lead): approximately 87%
enzyme inhibition (isocitrate dehydrogenase [3]; pH 8.5, up to about 28 mg per deciliter lead (so in the source)): about 90%
Current (isocitrate dehydrogenase [3]; pH 9.0, 5.5 μg/dL Pb): 4 nA
Inhibition (isocitrate dehydrogenase [3]; pH 9.0, 5.5 μg/dL Pb): 99%
Current (isocitrate dehydrogenase [3]; pH 9.0, 11.1 μg/dL Pb): 21 nA
Inhibition (isocitrate dehydrogenase [3]; pH 9.0, 11.1 μg/dL Pb): 98%
Inhibition (in words) (isocitrate dehydrogenase [3]; pH 9.0, between 0 and 5.5 mg per deciliter lead (so in the source)): complete inhibition
Inhibition (in words) (isocitrate dehydrogenase [3]; pH 9.0, up to 5.5 μg/dL lead): completely inhibited
